Marks after values point to notes of the source that are not given here.

Data set [1] deals with φX174 RFI (Form I) double stranded DNA. Description: DNA cleavage of supercoiled φX174 RFI (Form I) DNA, agarose gel electrophoresis and densitometry. Type of data set: biochemical. Particulars: FIG. 1; 100 μM, pH range 7.0-8.5, 72 hours.
For data set [2] the test system is unchanged. Described as above. The format is biochemical. Conditions: for net DNA cut (%) / DNA cleavage potency relative to Compound A: 37° C.; for net DNA cut (%): TEA buffer pH 8.5, 20% DMSO; for DNA cleavage potency relative to Compound A: 72 hours. As for the experimental part:
DNA cleavage studies on the compounds of this invention were performed by using supercoiled, covalently closed, circular φX174 RFI (Form I) double stranded DNA. Thus, a 54.3 μM/bp (micromolar per base pair) solution of φX174 RFI DNA and a compound in the indicated concentration in TEA buffer (pH 8.5) containing 20% DMSO was incubated at 37° C. for 48-72 hours and analyzed by 1% agarose gel electrophoresis to separate the various forms of DNA. DNA cleavage was indicated by the formation of nicked relaxed circular DNA (Form II) or linearized DNA (Form III), which was visualized using ethidium bromide stain. A photo picture of the gel was taken over a 365 nanometer ultra-violet light transilluminator and the relative densities of DNA bands were quantitated by a GS-700 imaging densitometer (BIO-RAD). The percentage of net DNA cleavage was calculated by the following equation:
Net DNA Cleavage (%)={[(Form II)s+2×(Form III)s]/[(Form I)s+(Form II)s+2×(Form III)s]×100}−{(Form II)c/[(Form I)c+(Form II)c]×100}
wherein the subscripts “s” and “c” refer to as the samples and controls, respectively.

Data set [3] concerns P388 mice T cell leukemia cells. In words: Cytotoxicity by MTT assay in P388 cells. Type of data set: cell-based, mouse. As for the experimental part:
Cytotoxicity was assessed in P388 mice T cell leukemia cells by MTT [3-(4,5-dimethylthiazol-2-yl)-2,5-diphenyl-2H-tetrazolium bromide] assay. Cell suspension (1×10^5 cells/mL) was plated in 96 well microtiter plates at 50 μL/well and it was followed by 50 μL/well of the test compound in serially diluted concentrations. The cells were incubated at 37° C. in a humidified atmosphere containing 5% CO2 in air for 72 hours at which time the tetrazolium dye, MTT, was added. After another 3 hours incubation, 100 μL/well of acidified 2-propanol (0.04 N HCl) was added. The optical densities of the plates were measured with a microplate reader (BIO-RAD) at 570 nm. The greater the absorbance the greater the number of live cells. The results are expressed as an IC50 which is the drug concentration required to inhibit cell proliferation to 50% of that of untreated control cells. The detailed procedure is found in Mosman, J. Immunol. Methods 65:55 (1983); Ferrari et al., Immunol. Methods 131:165 (1990).
(In general: Tetrazolium dyes change colour on reduction, which living cells bring about.)

For data set [4] the following is noted: at 37° C.; cited from earlier work.
[5] abbreviates: P388 mouse leukemia cells, 37° C., 72 h, 5% CO2.

Turning to `OC1C#CCCCCC#C/C1=C\c1ccccc1` (stereo not drawn) [Compound 6, (E)-4-(Phenylmethylidene)cyclodeca-1,5-diyn-3-ol], the “DNA cleavage activity (in words)” value in data set [1] was “less potent compared to the corresponding acetate, Compound 29”.

As to `CC(=O)OC1C#CCCCCC#C/C1=C\c1ccccc1` (stereo not drawn) [Compound 29, (E)-3-Acetoxy-4-(phenylmethylidene)cyclodeca-1,5-diyne], in data set [2] (At 20 μM), the “net DNA cut (%)” value was 19.3[b] %. For the same compound, the concentration for half-maximal inhibition (IC50) in data set [3] (setting [5]) was 48 µM. Besides, in data set [1], the “DNA cleavage activity (in words)” value was “slightly higher DNA cleavage activity in the basic pHs”.

As for `COc1ccc(/C=C2\C#CCCCCC#CC2OC(C)=O)cc1` (stereo not drawn) [Compound 30a, (E)-3-Acetoxy-4-[(4′-methoxyphenyl)methylidene]cyclodeca-1,5-diyne], the “net DNA cut (%)” value in data set [2] (At 20 μM) is 86.4[b] %. Besides, it took 15 µM to reach half-maximal inhibition in data set [3] (setting [5]) (IC50).

Consider `CC(=O)OC1C#CCCCCC#C/C1=C\c1cccc2ccccc12` (stereo not drawn) [Compound 30b, (E)-3-Acetoxy-4-(1′-naphthylmethylidene)cyclodeca-1,5-diyne], for which the “net DNA cut (%)” value in data set [2] (At 5 μM) was 33.5[d] %; in data set [2] (At 20 μM), 77.7[b] %. Further, the half-maximal inhibitory concentration (IC50) in data set [3] (Mus musculus, P388 cells) came to 2.4 µM; in data set [3] (setting [5]), 2.4 µM.

As to `CC(=O)OC1C#CCCCCC#C/C1=C\c1ccc2ccccc2c1` (stereo not drawn) [Compound 30c, (E)-3-Acetoxy-4-(2′-naphthylmethylidene)cyclodeca-1,5-diyne], the “net DNA cut (%)” value in data set [2] (At 20 μM) was 82.3[b] %. The 50% inhibitory concentration (IC50) was 2.8 µM in data set [3] (Mus musculus, P388 cells) and 2.8 µM in data set [3] (setting [5]).

In the case of `COCC(=O)OC1C#CCCCCC#C/C1=C\c1ccccc1` (stereo not drawn) [Compound 31, (E)-3-Methoxyacetoxy4-(phenylmethylidene)cyclodeca-1,5-diyne], the “net DNA cut (%)” value in data set [2] (At 20 μM) is 13.2[b] %. In data set [2] (FIG. 2, pH 8.5), the “DNA cleavage potency relative to Compound A” value was “ca. 100 fold”. For the same compound, the “DNA cleavage activity (in words)” value in data set [2] (FIG. 2, concentration range 5-100 μM, pH 8.5) is “same level of DNA cleavage activity as enediyne, Compound 42”. In data set [3] (setting [5]), this compound returned a half-maximal inhibitory concentration (IC50) of 23 µM.

For the compound `COCC(=O)OC1C#CCCCCC#C/C1=C\c1cccc2ccccc12` (stereo not drawn) [Compound 32b, (E)-3-Methoxyacetoxy-4-(1′-naphthylmethylidene)cyclodeca-1,5-diyne], the “net DNA cut (%)” value is 38.8[d] % in data set [2] (At 5 μM) and 87.4[b] % in data set [2] (At 20 μM). In data set [3] (setting [5]), this compound showed an IC50 of 12 µM.

`COCC(=O)OC1C#CCCCCC#C/C1=C\c1ccc2ccccc2c1` (stereo not drawn) [Compound 32c, (E)-3-Methoxyacetoxy-4-(2′-naphthylmethylidene)cyclodeca-1,5-diyne]: the “net DNA cut (%)” value in data set [2] (At 20 μM) was 71.9[b] %. The same compound came in with an IC50 in data set [3] (setting [5]) of 28 µM.

As for `COc1ccc(C(O)/C2=C/C#CCCCCC#C2)cc1` (stereo not drawn) [Compound 33, 3-[1′-Hydroxy-1′-(4″-methoxyphenyl)methyl]cyclodeca-3-en-1,5-diyne], the “DNA cleavage activity (in words)” value in data set [2] (FIG. 4, 20 μM, pH 8.5) is recorded as “reduced DNA cleavage activity”.

Take `CC(=O)OC1C#CCCCCC#C/C1=C\c1ccccc1CO[Si](C)(C)C(C)(C)C` (stereo not drawn) [Compound 34a, (E)-3-Acetoxy-4-[2′-((((tert-butyldimethyl)silyloxy)methyl)phenyl)methylidene]cyclodeca-1,5-diyne]: in data set [2] (At 100 μM), the “net DNA cut (%)” value was 10.7[c] %. For the same compound, the 50% inhibitory concentration (IC50) in data set [3] (setting [5]) is more than 50 µM.

As to `COCC(=O)OC1C#CCCCCC#C/C1=C\c1ccccc1CO[Si](C)(C)C(C)(C)C` (stereo not drawn) [Compound 34b, (E)-4-[2′-((((tert-butyldimethyl)silyloxy)methyl)phenyl)methylidene]-3-(methoxyacetoxy)cyclodeca-1,5-diyne], in data set [2] (At 100 μM), the “net DNA cut (%)” value was 14.4[c] %. Moreover, the IC50 in data set [3] (setting [5]) was more than 50 µM.

Consider `CC(=O)OC1C#CCCCCC#C/C1=C\c1ccccc1CO` (stereo not drawn) [Compound 35a, (E)-3-Acetoxy-4-[2′-((hydroxymethyl)phenyl)methylidene]cyclodeca-1,5-diyne], for which, in data set [2] (At 100 μM), the “net DNA cut (%)” value is 23.5[c] %. Also, the concentration for half-maximal inhibition (IC50) in data set [3] (setting [5]) was 21 µM.

With `COCC(=O)OC1C#CCCCCC#C/C1=C\c1ccccc1CO` (stereo not drawn) [Compound 35b], in data set [2] (At 100 μM), the “net DNA cut (%)” value is 17.6[c] %. This compound came in with a half-maximal inhibitory concentration (IC50) in data set [3] (setting [5]) of 16 µM.

`CCC(=O)OC1C#CCCCCC#C/C1=C\c1cccc2ccccc12` (stereo not drawn) [Compound 36, (E)-4-(1′-Naphthylmethylidene)-3-(propanoyloxy)cyclodeca-1,5-diyne] displayed an IC50 in data set [3] (setting [5]) of 10 µM.

Regarding `CCCCCCCC(=O)OC1C#CCCCCC#C/C1=C\c1cccc2ccccc12` (stereo not drawn) [Compound 37, (E)-4-(1′-Naphthylmethylidene)-3-(octanoyloxy)cyclodeca-1,5-diyne], the “net DNA cut (%)” value in data set [2] (At 5 μM) is 4.67[d] %. For the same compound, the “DNA cleavage activity relative to Compound 32b” value in data set [2] (FIG. 5, 5 μM, pH 8.5) was “ca. one eighth”. For the same compound, half-maximal inhibition in data set [3] (setting [5]) (IC50) required 13 µM.

On to `O=C(COCc1ccccc1)OC1C#CCCCCC#C/C1=C\c1cccc2ccccc12` (stereo not drawn) [Compound 38, (E)-3-(Benzyloxy)acetoxy4-(1′-naphthylmethylidene)cyclodeca-1,5-diyne], for which, in data set [2] (At 5 μM), the “net DNA cut (%)” value is 38.6[d] %. This compound registered an IC50 in data set [3] (setting [5]) of 6.7 µM.

On to `COc1ccc(COCC(=O)OC2C#CCCCCC#C/C2=C\c2cccc3ccccc23)cc1` (stereo not drawn) [Compound 39, (E)-3-[(4′-Methoxybenzyl)oxy]acetoxy-4-(1″-naphthylmethylidene)cyclodeca-1,5-diyne], for which, in data set [2] (At 5 μM), the “net DNA cut (%)” value was 26.1[d] %. Also, the IC50 in data set [3] (setting [5]) came out at 97 µM.

For `COc1ccc(OC)c(C(=O)OC2C#CCCCCC#C/C2=C\c2cccc3ccccc23)c1` (stereo not drawn) [Compound 40, (E)4-(1′-Naphthylmethylidene)-3-((2″,5″-dimethoxybenzoyl)oxy)cyclodeca-1,5-diyne], in data set [2] (At 5 μM), the “net DNA cut (%)” value was 35.6[d] %. Further, the “DNA cleavage activity (in words)” value in data set [2] (FIG. 5, 5 μM, pH 8.5) was “little effect as compared to the acetate in Compound 30b”. Moreover, the IC50 in data set [3] (setting [5]) came to 17 µM.

For `O=C(OC1C#CCCCCC#C/C1=C\c1cccc2ccccc12)c1cccc2cc3ccccc3cc12` (stereo not drawn) [Compound 41, (E)-3-[(1′-Anthracenecarbonyl)oxy]-4-(1″-naphthylmethylidene)cyclodeca-1,5-diyne], the “net DNA cut (%)” value in data set [2] (At 5 μM) was 10.6[d] %. For the same compound, the “DNA cleavage activity (in words)” value in data set [2] (FIG. 5, 5 μM, pH 8.5) is listed as “reduced the DNA cleaving potency”. Moreover, in data set [3] (setting [5]), 11 µM corresponded to half-maximal inhibition (IC50).

As for `COCC(=O)OC(/C1=C/C#CCCCCC#C1)c1ccccc1` (stereo not drawn) [Compound 42, 3-[(1′-Methoxyacetoxy-1′-phenyl)methyl]cyclodeca-3-en-1,5-diyne], the “net DNA cut (%)” value in data set [2] (At 20 μM) is 12.9[b] %. Further, the “DNA cleavage potency relative to Compound A” value in data set [2] (FIG. 2, pH 8.5) is listed as “ca. 100 fold”. The compound also registered an IC50 in data set [3] (setting [5]) of 7.7 µM.

On to `COCC(=O)OC(/C1=C/C#CCCCCC#C1)c1cccc2ccccc12` (stereo not drawn) [Compound 43a, 3-[(1′-Methoxyacetoxy-1′-(1″-naphthyl))methyl]cyclodeca-3-en-1,5-diyne], for which the “net DNA cut (%)” value in data set [2] (At 20 μM) was 67.4[b] %. Also, in data set [3] (setting [5]), the IC50 worked out at 3.8 µM.

Consider `COCC(=O)OC(/C1=C/C#CCCCCC#C1)c1ccc2ccccc2c1` (stereo not drawn) [Compound 43b, 3-[(1′-Methoxyacetoxy-1′-(2″-naphthyl))methyl]cyclodeca-3-en-1,5-diyne], for which, in data set [2] (At 20 μM), the “net DNA cut (%)” value was 77.8[b] %. For the same compound, in data set [3] (setting [5]), the IC50 amounted to 9.6 µM.

In the case of `COCC(=O)OC(C1=CC#CCCCCC#C1)c1ccccc1CO[Si](C)(C)C(C)(C)C` (stereo not drawn) [Compound 45, 3-[1′-(2″-(((tert-Butyldimethyl)silyloxy)methyl)phenyl)-1′-(methoxyacetoxy)methyl]cyclodeca-3en-1,5-diyne], the “net DNA cut (%)” value in data set [2] (At 100 μM) is 4.13[c] %. The same compound came in with a 50% inhibitory concentration (IC50) in data set [3] (setting [5]) of 12 µM.

Consider `COCC(=O)OC(/C1=C/C#CCCCCC#C1)c1ccccc1CO` (stereo not drawn) [Compound 48], for which the IC50 in data set [3] (setting [5]) was 8.1 µM. This lies in the single-digit micromolar range.

Turning to `C1#CCCCCC#C/C(C2OCc3ccccc32)=C\1` (stereo not drawn) [Compound 51, 3-[2′,5′-Dihydrobenzofuran-2′-yl]cyclodeca-3-en-1,5-diyne], the “DNA cleavage activity (in words)” value in data set [2] (FIG. 6, 100 μM, pH 8.5) is given as “less potent than Compound 42”.

With `C1#CCCCCC#CC=C1` [cyclodeca-1,5-diyn-3-ene], the half-life in data set [4] is 18 h.

For orientation: IC50 means the midpoint of a concentration-inhibition curve. Broadly, the half-life is the time in which the quantity being followed falls by half.

The record behind these values is patent US6391916B1, “Enediyne derivatives” (The Hong Kong University of Science and Technology, priority 2000, dated 2002).
